Structures are written as SMILES.

Usually inhibition in vivo stands for the drop in the measured response relative to a control, in per cent. For orientation: IC50 means the concentration that inhibits the measured activity by half.

In data set [1] the test system is Plasmodium berghei. In words: Antimalarial activity against chloroquine-sensitive Plasmodium berghei infected in Swiss albino mouse assessed as chemosuppression at 200 mg/kg, po qd administered for 4 days by peter's test relative to control. In kind it is functional. The settings on record: 96 h.
Data set [2] concerns Plasmodium falciparum. The data set can be described thus: Antimalarial activity against chloroquine-resistant Plasmodium falciparum W2 infected in human erythrocytes assessed as parasite growth inhibition after 48 hrs by YOYO1 probe-based flow cytometric method. In kind it is functional, cell-based. The settings on record: W2, 48 h. Background: A flow cytometer gives signals particle by particle.

Data set [3] has as its target Ferriprotoporphyrin IX. The data set can be described thus: Binding affinity to haematin assessed as inhibition of NP40-mediated beta-haematin formation after 4 hrs by pyridine-ferrochrome method.
In data set [4] the test system is Mus musculus. The data set can be described thus: Toxicity in Swiss albino mouse at 2000 mg/kg, po. Type of data set: organism-based. The settings on record: in vivo.

In the case of `CN(C)c1nc(Cl)nc(Nc2ccc(Nc3ccnc4cc(Cl)ccc34)cc2)n1`, in data set [1], the inhibition in vivo at 200 mg/kg amounted to 95.2%. Further, the IC50 in data set [2] stood at 380 nM; in data set [3], 29700 nM. For the same compound, the Activity result in data set [4] is “Non-Toxic”.

On to `CCN(c1ccccc1)c1nc(Cl)nc(Nc2ccc(Nc3ccnc4cc(Cl)ccc34)cc2)n1`, for which the inhibition in vivo at 200 mg/kg in data set [1] turned out to be 97%. The IC50 in data set [2] worked out at 220 nM; in data set [3], 29200 nM. For the same compound, the Activity result in data set [4] was “Non-Toxic”.

Turning to `CN(c1ccccc1)c1nc(Cl)nc(Nc2ccc(Nc3ccnc4cc(Cl)ccc34)cc2)n1`, in data set [1], the inhibition in vivo at 200 mg/kg was 91.1%. Further, the figures for the IC50 in data set [2] and in data set [3] were 269 nM and 23700 nM, respectively. Besides, the Activity result in data set [4] is listed as “Non-Toxic”.

Consider `CC(C)N(c1nc(Cl)nc(Nc2ccc(Nc3ccnc4cc(Cl)ccc34)cc2)n1)C(C)C`, for which the inhibition in vivo at 200 mg/kg in data set [1] was determined as 95.5%. Moreover, the values for the IC50 in data set [2] and in data set [3] were 902 nM and above 500000 nM, respectively. Also, the Activity result in data set [4] is recorded as “Non-Toxic”.

Take `Clc1ccc2c(Nc3ccc(Nc4nc(Cl)nc(N(c5ccccc5)c5ccccc5)n4)cc3)ccnc2c1`: the inhibition in vivo at 200 mg/kg in data set [1] amounted to 97.4%. The IC50 is 255 nM in data set [2] and 24900 nM in data set [3]. Also, in data set [4], the Activity entry is “Non-Toxic”.

In the case of `O=[N+]([O-])c1ccc(Nc2nc(Cl)nc(Nc3ccc(Nc4ccnc5cc(Cl)ccc45)cc3)n2)cc1`, the inhibition in vivo at 200 mg/kg in data set [1] worked out at 97.4%. In addition, the IC50 in data set [2] was 145 nM; in data set [3] it was 23000 nM. The Activity entry in data set [4] is recorded as “Non-Toxic”.

Take `Clc1ccc2c(Nc3ccc(Nc4nc(Cl)nc(N5CCOCC5)n4)cc3)ccnc2c1`: the inhibition in vivo at 200 mg/kg in data set [1] turned out to be 97%. Also, the IC50 in data set [2] came out at 138 nM; in data set [3] it was 21100 nM. Moreover, the Activity entry in data set [4] is given as “Non-Toxic”.

Take `Clc1ccc2c(Nc3ccc(Nc4nc(Cl)nc(N5CCNCC5)n4)cc3)ccnc2c1`: in data set [1], the inhibition in vivo at 200 mg/kg stood at 94.8%. Moreover, the IC50 in data set [2] was determined as 167 nM; in data set [3] it was 23700 nM. Moreover, in data set [4], the Activity result is on record as “Non-Toxic”.

Consider `C[C@@H]1CC[C@H]2[C@@H](C)C(=O)O[C@@H]3O[C@@]4(C)CC[C@@H]1[C@]32OO4` [ARTEMISININ], for which the IC50 in data set [2] was found to be 15 nM.

On to `Clc1ccc2c(Nc3ccc(Nc4nc(Cl)nc(N5CCCCC5)n4)cc3)ccnc2c1`, for which, in data set [1], the inhibition in vivo at 200 mg/kg turned out to be 94.1%. The IC50 was 118 nM in data set [2] and 20600 nM in data set [3]. The Activity entry in data set [4] is recorded as “Non-Toxic”.

As to `COc1ccccc1Nc1nc(Cl)nc(Nc2ccc(Nc3ccnc4cc(Cl)ccc34)cc2)n1`, the inhibition in vivo at 200 mg/kg in data set [1] worked out at 94.8%. The IC50 in data set [2] was determined as 145 nM; in data set [3] it was 21000 nM. In addition, the Activity result in data set [4] is “Non-Toxic”.

Consider `CCCN(CCC)c1nc(Cl)nc(Nc2ccc(Nc3ccnc4cc(Cl)ccc34)cc2)n1`, for which the inhibition in vivo at 200 mg/kg in data set [1] stood at 91.5%. Moreover, the IC50 in data set [2] stood at 8 nM; in data set [3], 18600 nM. The Activity result in data set [4] is reported as “Non-Toxic”.

In the case of `Nc1ccc(Nc2ccnc3cc(Cl)ccc23)cc1`, the inhibition in vivo at 200 mg/kg in data set [1] is 85.9%. The concentration for half-maximal inhibition (IC50) in data set [2] stood at 807 nM; in data set [3] it was 32500 nM. The Activity entry in data set [4] is reported as “Non-Toxic”.

In the case of `Clc1ccc2c(Nc3ccc(Nc4nc(Cl)nc(NCc5ccccc5)n4)cc3)ccnc2c1`, the inhibition in vivo at 200 mg/kg in data set [1] stood at 97%. The values for the IC50 in data set [2] and in data set [3] were 123 nM and 21800 nM, respectively. Also, in data set [4], the Activity entry is “Non-Toxic”.

With `CCN(CC)c1nc(Cl)nc(Nc2ccc(Nc3ccnc4cc(Cl)ccc34)cc2)n1`, the inhibition in vivo at 200 mg/kg in data set [1] stood at 95.5%. Also, the half-inhibitory concentration (IC50) in data set [2] worked out at 268 nM; in data set [3] it was 21600 nM. For the same compound, the Activity result in data set [4] is recorded as “Non-Toxic”.

Consider `Clc1ccc2c(Nc3ccc(Nc4nc(Cl)nc(N5CCCC5)n4)cc3)ccnc2c1`, for which the inhibition in vivo at 200 mg/kg in data set [1] came to 97%. Further, the half-inhibitory concentration (IC50) in data set [2] came to 119 nM; in data set [3], 28100 nM. In addition, in data set [4], the Activity entry was “Non-Toxic”.

Regarding `CCN(CC)CCCC(C)Nc1ccnc2cc(Cl)ccc12` (stereo not drawn) [CHLOROQUINE], the inhibition in vivo at 200 mg/kg in data set [1] was 83%. Also, the IC50 in data set [3] was 27200 nM.

For the origin of these results see ChEMBL document CHEMBL4007504, “Docking, synthesis and antimalarial activity of novel 4-anilinoquinoline derivatives” (Bioorg Med Chem Lett, 2017).
